No end group written: not given here. *: point of attachment. Biotin = O=C1N[C@H]2[C@H](CS[C@H]2CCCCC(=O)*)N1
Tests used:
[1] = test system: B box-induced DC maturation; assay: Signalling inhibitors on B box-induced CD83 upregulation and IL-6 secretion in DCs; assay type: cell-based, human; conditions: 30 min preincubation, then rB box 100 μg/ml, 48 h; SB203580 5 or 20 μM, PD98059 and TPCK 20 or 80 μM
Description: FIG. 6. B box causes […] upregulation and IL-6 secretion via a p38 dependent pathway. Immature d7 DCs were preincubated for 30 min with (i) DMSO, (ii) PD98059 at 20 (P20) or 80 (P80) μM, (iii) SB203580 at 5 (S5) or 20 (S20) μM, (iv) TPCK at 20 (T20) or 80 (T80) μM and then treated with rB box (100 μg/ml), or cultured with DMSO in the absence of B box (medium). 48 h after activation the DCs were assayed for the surface expression of CD83 by FACS and IL-6 secretion was measured by ELISA. The results shown are mean+/−SEM of three independent experiments using DCs generated from different donors.
The p38 MAPK-specific inhibitor, SB203580, a pyridinyl imidazole compound, the MEK inhibitor PD98059, and N-tosyl-L-phenylalanine chloromethyl ketone (TPCK) were purchased from Sigma. Because these required solubilization in DMSO, DMSO was used as a negative control.
To obtain insight into the roles of ERK and p38 MAPK pathways in B box-induced DC maturation, we used their specific inhibitors, PD98059 and SB203580, respectively. To analyze the role of NF-κB we used TPCK, a serine protease inhibitor that blocks nuclear translocation of Rel/NF-κB by preventing IκB degradation.

[2] = test system: human monocyte-derived DCs; assay: Cytokine and chemokine secretion by human immature monocyte-derived DCs (ELISA); assay type: cell-based; design: key to TNFα / IL-18 / IL-8 / IL-10 / IL-6 / IL-12: + indicates increase; − indicates no change compared to medium
Description: (§1) PBMCs were isolated from the blood of normal volunteers (Long Island Blood Services, Melville, N.Y.) over a Ficoll-Hypaque (Amersham Biosciences, Uppsala, Sweden) density gradient. CD14^+ monocytes were isolated from PBMCs by positive selection using anti-CD14 beads (Miltenyi Biotech., Auburn, Calif.) following the manufacturer's instructions. To generate DCs, CD14^+ cells were cultured in RPMI 1640 medium supplemented with 2 mM L-glutamine (GIBCO-BRL Life Technologies; Grand Island, N.Y.), 50 μM 2-mercaptoethanol (Sigma, St. Louis, Mo.), 10 mM HEPES (GIBCO-BRL), penicillin (100 U/ml)-streptomycin (100 μg/ml) (GIBCO-BRL), and 5% human AB serum (Gemini Bio-Products, Woodland, Calif.). Cultures were maintained for 7 days in 6-well trays (3×10^6 cells/well) supplemented with 1000 U GM-CSF per ml (Immunex, Seattle, Wash.) and 200 U IL-4 per ml (R&D Systems; Minneapolis, Minn.) at days 0, 2, 4 and 6.
At day 7 of culture, immature DCs were either left untreated (“immature”, IM), or were stimulated with indicated doses of (i) LPS (E. coli serotype 026:B6, Sigma), (ii) 500 ng/ml of trimeric CD40L (Alexis Biochemicals; San Diego, Calif.), (iii) a cocktail of cytokines (CyC) consisting of IL-6 at 1000 U/ml, TNFα at 10 ng/ml, IL-1β at 10 ng/ml (all from R&D Systems) and prostaglandin E2 (PGE-2) at 1 μg/ml (Sigma), or with (v) non-methylated CpG oligonucleotides (5′ […] 3′) at 30 μg/ml. The sequence of this oligonucleotide is known to induce DC maturation (4), except that it contains an unmodified phosphodiester backbone. In all experiments, DCs were analyzed 48 h after stimulation. All experiments using the rB box were performed in the presence of polymyxin B sufficient to neutralize greater than 10-fold more LPS than present in rB box preparations.
(§2) 48 h post activation, the production of cytokines and chemokines in cell culture supernatants was measured by ELISA (Pierce Boston Technology Center, SearchLight™ Proteome Arrays Multiplex Sample Testing Services, Woburn, Mass.).
as §1, with “DCs, CD 14^+” for “DCs, CD14^+”
(§3) At day 7 of culture, immature DCs were either left untreated, or were stimulated with indicated doses of HMGB1-Bx, HMGB1 peptides, or LPS (E. coli serotype 026:B6, Sigma). In all experiments, DCs were analyzed 48 h after stimulation.

allogeneic T cells = assay: Mixed leukocyte reaction, stimulated murine BM-DCs with allogeneic T cells; assay type: cell-based, mouse; conditions: BM-DCs from C57/BL6 mice; HMGB1-Bx 50 μg/ml, peptides 200 μg/ml, 48 h; 5-day co-culture
Description: T cells were isolated by negative selection using the mouse SpinSep antibody cocktail from StemCell Technologies (Vancouver, Calif.) according to the manufacturer's instructions. The cell purity of the isolated T cells was routinely ˜99% pure.
To assess levels of T cell activation and proliferation, cells were plated at 10^5 cells per well in a round-bottomed 96-well tray at DC:T cell ratios of 1:120 for 5 days in medium described above. The microcultures were pulsed with (^3H)-thymidine (1 μCi/well) for the final 8 h of culture. Cell cultures were harvested onto glass fiber filters with an automated multiple sample harvester and the amount of isotope incorporation was determined by liquid scintillation β-emission. Responses are reported as mean cpm of thymidine incorporation by triplicate cultures (+/−SEM).

murine BM-DCs [3] = assay: Phenotypic maturation of murine BM-DCs (surface markers, FACS); assay type: cell-based, mouse; conditions: CD11c+ gated BM-DCs, 48 h; peptides 200 μg/ml
Description: (§4) Bone marrow-derived DCs (BM-DC) were generated using modifications of the original method described by Inaba et al (42). In brief, bone marrow suspensions were incubated with red cell lysis buffer (PUREGENE™ RBC Lysis Solution, Gentra Systems, Minneapolis, Minn.) to remove red blood cells. After washing in media, lymphocytes and Ia-positive cells were killed with a cocktail of mAbs and rabbit complement for 60 min at 37° C. The mAbs were GK1.5 anti-CD4, TIB211 anti-CD8, TIB 120 anti-Ia, and TM 146 anti B220 (The Abs were kindly provided by Dr. Ralph Steinman). The cells were subsequently cultured in media containing 5% FCS and 10 ng/ml recombinant mouse GM-CSF (R&D Systems; Minneapolis, Minn.) for 7 days. For some experiments the cells were further purified at day 7 using CD11c^+-microbeads (Miltenyi Biotech., Auburn, Calif.) according to the manufacturer's instructions.
as §3
1×10^4 DCs were reacted for at least 20 min at 4° C. in 100 μl of PBS/5% FCS/0.1% sodium azide (staining buffer) with fluorescein isothiocyanate (FITC)-conjugated IgG mAb specific for CD86, CD40 and MHC-II (eBioscience). Cells were then washed 4 times with staining buffer, fixed in 10% formaldehyde in PBS (pH 7.2-7.4) and examined by flow cytometry using a FACScan (BD). In all experiments, isotype controls were included using FITC-conjugated irrelevant mAb of the same Ig class.

murine BM-DCs [4] = assay: Cytokine and chemokine secretion by murine bone marrow-derived DCs (ELISA); assay type: cell-based, mouse; design: key to TNFα / IL-18 / IL-8 / IL-10 / IL-2 / IL-1β / IL-5 / IL-6 / IL-12: + indicates increase; − indicates no change compared to medium
Description: as §4, §3, §2

[5] = Example 2, peptides 200 μg/ml, HMGB1-Bx 50 μg/ml, polymyxin B, 48 h, FIG. 8C
[6] = HUMAN DC, ELISA 48 h after exposure, compared to medium
[7] = Murine DC, ELISA 48 h after exposure, compared to medium
[8] = peptides 200 μg/ml, HMGB1-Bx 50 μg/ml, polymyxin B, 48 h

C[S+]([O-])c1ccc(-c2nc(-c3ccncc3)c(-c3ccc(F)cc3)[nH]2)cc1 (stereo not drawn) [SB203580]
B box induced secretion of IL-6 [1]: downregulated
B box-induced upregulation of CD83 [1]: completely abrogated

CSEYRPKIKGEHPGLSIG [Hp-106] (Biotin-CSEYRPKIKGEHPGLSIG; listed as Homo sapiens)
IL-6 release ([2]; Example 1, synthetic B box peptides at 200 μg/ml, FIGS. 3D, E): specifically stimulated IL-6 release
secretion of IL-6 ([2]; Example 2, peptides 200 μg/ml, HMGB1-Bx 50 μg/ml, polymyxin B, 48 h, FIG. 8A, 8B): induced secretion of IL-6
secretion of IL-8 [2, 5]: not
secretion of IL-12 (p70) [2, 5]: increased secretion
secretion of IL-18 [2, 5]: increased secretion
secretion of TNF-α [2, 5]: increased secretion
IL-6 [2, 6]: +
IL-8 [2, 6]: −
IL-10 [2, 6]: −
IL-12 [2, 6]: +
IL-18 [2, 6]: +
TNFα [2, 6]: +
T cell stimulatory activity of exposed BM-DCs in mixed lymphocyte reaction (allogeneic T cells): activated resting allogeneic T cells
surface expression of maturation markers (murine BM-DCs [3]): did not significantly enhance
IL-1β (murine BM-DCs [4]; [7]): +
IL-2 (murine BM-DCs [4]; [7]): +
IL-5 (murine BM-DCs [4]; [7]): +
IL-6 (murine BM-DCs [4]; [7]): −
IL-8 (murine BM-DCs [4]; [7]): +
IL-10 (murine BM-DCs [4]; [7]): −
IL-12 (murine BM-DCs [4]; [7]): +
IL-18 (murine BM-DCs [4]; [7]): +
TNFα (murine BM-DCs [4]; [7]): +
activation of murine BM-DCs (murine BM-DCs [4]; peptides 200 μg/ml, 48 h): activated
secretion of IL-2 (murine BM-DCs [4]; [8]): enhanced secretion
secretion of IL-5 (murine BM-DCs [4]; [8]): enhanced secretion
secretion of IL-8 (murine BM-DCs [4]; [8]): enhanced secretion
secretion of IL-12 (p70) (murine BM-DCs [4]; [8]): enhanced secretion
secretion of IL-18 (murine BM-DCs [4]; [8]): enhanced secretion
secretion of TNF-α (murine BM-DCs [4]; [8]): enhanced secretion
secretion of IL-10 (murine BM-DCs [4]; peptides 200 μg/ml, polymyxin B, 48 h): enhanced secretion
